Assay results reported in ChEMBL document CHEMBL3870307, “5-HT7 receptor modulators: Amino groups attached to biphenyl scaffold determine functional activity” (Eur J Med Chem, 2016).
Active and inactive are the calls of the source. The rule behind the calls is not given here.

Assays:
[1] = biological target: T1, 5-hydroxytryptamine receptor 7 (Homo sapiens, UniProt P34969); experiment: Displacement of [3H]D-lysergic acid diethylamide from 5HT7R (unknown origin) expressed in HEK293 cell membranes incubated for 1.5 hrs in absence of light by liquid scintillation counting
[2] = biological target: T1, 5-hydroxytryptamine receptor 7; experiment: Agonist activity at human 5-HT7R expressed in HEK293 cells assessed as induction of cAMP levels at 10 uM treated for 10 mins measured after 30 mins by D2-dye based fluorescence assay relative to serotonin; format: functional, cell-based
[3] = biological target: T1, 5-hydroxytryptamine receptor 7; experiment: Antagonist activity at human 5-HT7R expressed in HEK293 cells assessed as inhibition of serotonin stimulated cAMP levels at 10 uM preincubated for 10 mins followed by serotonin stimulation after 30 mins by D2-dye based fluorescence assay; format: functional, cell-based
[4] = biological target: T1, 5-hydroxytryptamine receptor 7; experiment: Antagonist activity at human 5-HT7R expressed in HEK293 cells assessed as inhibition of serotonin stimulated-cAMP levels preincubated for 10 mins followed by serotonin stimulation after 30 mins by D2-dye based fluorescence assay; format: functional, cell-based
[5] = biological target: T1, 5-hydroxytryptamine receptor 7; experiment: Antagonist activity at human 5-HT7R expressed in HEK293 cells assessed as inhibition of serotonin stimulated-cAMP levels at 100 uM preincubated for 10 mins followed by serotonin stimulation after 30 mins by D2-dye based fluorescence assay; format: functional, cell-based
[6] = biological target: T1, 5-hydroxytryptamine receptor 7; experiment: Agonist activity at human 5-HT7R expressed in HEK293 cells assessed as induction of cAMP levels treated for 10 mins measured after 30 mins by D2-dye based fluorescence assay; format: functional, cell-based
[7] = biological target: T1, 5-hydroxytryptamine receptor 7; experiment: Displacement of [3H]D-lysergic acid diethylamide from 5HT7R (unknown origin) expressed in CHO-K1 cell membranes incubated for 1.5 hrs in absence of light by liquid scintillation counting

T1 sequence (P34969 whole entry): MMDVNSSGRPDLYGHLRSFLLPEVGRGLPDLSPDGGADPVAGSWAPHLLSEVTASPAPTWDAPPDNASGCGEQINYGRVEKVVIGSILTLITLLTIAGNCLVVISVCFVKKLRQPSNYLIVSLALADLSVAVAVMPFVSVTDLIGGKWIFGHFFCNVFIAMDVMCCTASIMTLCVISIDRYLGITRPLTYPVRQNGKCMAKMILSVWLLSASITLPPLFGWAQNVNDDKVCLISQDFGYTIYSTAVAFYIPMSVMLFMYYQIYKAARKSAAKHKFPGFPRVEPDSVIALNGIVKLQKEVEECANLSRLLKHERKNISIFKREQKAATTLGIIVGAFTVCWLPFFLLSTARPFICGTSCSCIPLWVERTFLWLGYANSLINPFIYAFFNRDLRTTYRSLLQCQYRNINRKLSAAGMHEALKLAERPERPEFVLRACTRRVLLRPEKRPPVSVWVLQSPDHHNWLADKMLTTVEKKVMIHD

Structure (SMILES) | Ki [1] | Emax [2] | Imax [3] | IC50 [4] | inhibition [5] | EC50 [6] | Ki [7]
COc1ccccc1-c1cc(CN2CCC(C)CC2)ccc1C | 1120 nM | 2.53% | 29% |  |  |  | 
COc1ccccc1-c1cc(CN(C)C)cc2c1OCO2 | 772 nM | 3.97% | 13.5% |  |  |  | 
COc1ccccc1-c1cc(CN(C)C)ccc1OC | 1020 nM | 28.8% | 4.54% |  |  |  | 
COc1ccccc1-c1cc(CN2CCC(C)CC2)ccc1Cl | 389 nM | -14.4% | 52.3% |  |  |  | 
COc1ccccc1-c1cc(CN2CCC(C)CC2)cc2c1OCO2 | 691 nM | 7.6% | 15.6% |  |  |  | 
CC1CCN(CC[C@H]2CCCN2S(=O)(=O)c2cccc(O)c2)CC1 |  |  | 100% |  |  |  | 
COc1ccccc1-c1cccc(CN2CCN(c3ccccc3OC)CC2)c1 |  |  |  |  |  |  | 15 nM
CNCc1ccc(OC)c(-c2ccccc2OC)c1 | 648 nM | 11% | 2.25% |  |  |  | 
COc1ccccc1-c1cc(CN2CCN(c3ccccc3OC)CC2)ccc1C | 18 nM | 14% | 69.3% | 6350 nM | Active |  | 
COc1ccccc1-c1cccc(CN2CCC(C)CC2)c1 | 1040 nM | 8.59% | 39% |  |  |  | 
COc1ccccc1-c1cc(CN2CCC(C)CC2)ccc1OC | 3060 nM | -1.14% | 7.74% |  |  |  | 
CNCc1cc2c(c(-c3ccccc3OC)c1)OCO2 | 1480 nM | 13.6% | 8.4% |  |  |  | 

Further lines, with some results ahead:

Ki [1] | Emax [2] | Imax [3] | IC50 [4] | inhibition [5] | EC50 [6] | Structure (SMILES) | Ki [7]
226 nM | 24.5% | -0.87% |  |  |  | CNCc1cccc(-c2ccccc2OC)c1 | 
34 nM | -1.56% | 93.7% | 19800 nM | Active |  | COc1ccccc1-c1cc(CN2CCN(c3ccccc3OC)CC2)cc2c1OCO2 | 
126 nM | 15.4% | 40.8% |  |  |  | COc1ccccc1-c1cccc(CN(C)C)c1 | 
15 nM | 55.5% | 2.49% |  |  | 3200 nM | CNCc1ccc(C)c(-c2ccccc2OC)c1 | 
23 nM | 33.3% | 6.61% |  |  |  | COc1ccccc1-c1cc(CN(C)C)ccc1C | 
18 nM | 27.6% | 10.3% |  |  |  | COc1ccccc1-c1cc(CN(C)C)ccc1Cl | 
79 nM | -2.42% | 91.6% | 5570 nM | Active |  | COc1ccccc1-c1cc(CN2CCN(c3ccccc3OC)CC2)ccc1OC | 
73 nM | -7.72% | 91% | 23100 nM | Active |  | COc1ccccc1-c1cc(CN2CCN(c3ccccc3OC)CC2)ccc1Cl | 
5.2 nM | 66.8% | 4.66% |  |  | 550 nM | CNCc1ccc(Cl)c(-c2ccccc2OC)c1 | 
